Source: patent US9695155B2, “Herbicidal substituted pyrimidinyloxy benzene compounds” (E. I. DU PONT DE NEMOURS AND COMPANY, priority 2013, dated 2017)

Assays:
[1] = test system: morningglory; assay: Test C postemergence; assay type: in vivo, Ipomoea coccinea
How it was run: (§1)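 Visual injury score versus untreated controls, 0 = no effect, 100 = complete control, taken 13 to 15 days after treatment in the greenhouse. Pre-emergence pots held loam/sand; post-emergence plants grew in sphagnum peat/vermiculite mix and were sprayed at the 1- to 4-leaf stage.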

[2] = test system: giant foxtail; assay: Test A preemergence; assay type: in vivo, Setaria faberii
How it was run: (§2)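 Compounds in non-phytotoxic solvent with surfactant applied as soil spray preemergence, or postemergence to plants 2-10 cm at one- to two-leaf stage, in loam/sand. After approximately 10 days in greenhouse, injury rated visually versus untreated controls, 0 (no effect) to 100 (complete control).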

[3] = test system: ragweed; assay: Test C postemergence; assay type: in vivo, Ambrosia elatior
How it was run: as §1

[4] = test system: barnyardgrass; assay: Test A preemergence; assay type: in vivo, Echinochloa crus-galli
How it was run: as §2

[5] = test system: sedge, umbrella; assay: Test B flooded paddy test; assay type: in vivo, Cyperus difformis; conditions: Cyperus difformis, Flood, 250 g ai/ha; 0 to 100 scale where 0 is no effect and 100 is complete control; read-out: Plant response rating, Sedge, Umbrella
How it was run: (§3)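 2-leaf stage plants; pots flooded to 3 cm, compound added to paddy water, depth maintained. Greenhouse 13–15 d. Visual rating vs untreated controls, 0 (no effect) to 100 (complete control); dash = no result.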

[6] = test system: barnyardgrass; assay: Test B flooded paddy test; assay type: in vivo, Echinochloa crus-galli; conditions: Echinochloa crus-galli; Flood, 250 g ai/ha; 0 to 100 scale where 0 is no effect and 100 is complete control; read-out: Plant response rating, Barnyardgrass
How it was run: as §3

[7] = test system: rice; assay: Test B flooded paddy test; assay type: in vivo, Oryza sativa; conditions: Oryza sativa; Flood, 250 g ai/ha; 0 to 100 scale where 0 is no effect and 100 is complete control; read-out: Plant response rating, Rice
How it was run: as §3

[8] = test system: velvetleaf; assay: Test C postemergence; assay type: in vivo, Abutilon theophrasti
How it was run: as §1

[9] = test system: wheat, winter; assay: Test C postemergence; assay type: in vivo, Triticum aestivum
How it was run: as §1

[10] = test system: galium; assay: Test C postemergence; assay type: in vivo, Galium aparine; conditions: Galium, post-emergence
How it was run: as §1

[11] = test system: lambsquarters; assay: Test C postemergence; assay type: in vivo, Chenopodium album
How it was run: as §1

[12] = test system: chickweed; assay: Test C postemergence; assay type: in vivo, Stellaria media; conditions: Stellaria media, post-emergence
How it was run: as §1

[13] = test system: yellow nutsedge; assay: Test C postemergence; assay type: in vivo, Cyperus esculentus
How it was run: as §1

[14] = test system: Heteranthera limosa; assay: Test B flooded paddy test; assay type: in vivo; conditions: Heteranthera limosa, Flood, 250 g ai/ha; 0 to 100 scale where 0 is no effect and 100 is complete control; read-out: Plant response rating, Ducksalad
How it was run: as §3

[15] = 31 g ai/ha, postemergence, visual rating, scale 0 to 100 (0 no effect, 100 complete control), 13 to 15 days

With `N#Cc1cccc(Oc2ncc(Cl)cn2)c1-n1cc(C(F)F)cn1` [Compound 253, 3-(5-chloropyrimidin-2-yl)oxy-2-[4-(difluoromethyl)-1H-pyrazol-1-yl]benzonitrile] as the molecule, how does the “Morningglory plant response rating” value [1, 15] read?
The value was 75.

What about the pest or weed control at 16 g/ha ([1]; Ipomoea, post-emergence, 16 g ai/ha, postemergence, 0 is no effect, 100 is complete control, read-out: Plant response rating (0 to 100), Morningglory) of the same molecule?
Its pest or weed control at 16 g/ha is 60%.

What about the pest or weed control at 125 g/ha ([1]; Ipomoea, post-emergence, 125 g ai/ha, postemergence, visual rating, scale 0 to 100 (0 no effect, 100 complete control), read-out: Plant response rating, Morningglory) of the same molecule?
Its pest or weed control at 125 g/ha is 85%.

What about the pest or weed control at 62 g/ha ([1]; Ipomoea, post-emergence, Postemergence, 62 g ai/ha, scale 0 to 100 (0 no effect, 100 complete control), 13 to 15 days, read-out: Plant response rating, Morningglory) of the same molecule?
Its pest or weed control at 62 g/ha is 75%.

And the “Foxtail, Giant plant response rating (0 to 100 scale)” value ([2]; 125 g ai/ha)?
The value was 100.

And the pest or weed control at 31 g/ha ([2]; Setaria faberi, pre-emergence, 240 h, 31 g ai/ha, 0 to 100 scale where 0 is no effect and 100 is complete control, visual, approximately 10 days, read-out: Plant response rating, Foxtail, Giant)?
The pest or weed control at 31 g/ha was 70%.

And the “Ragweed plant response rating” value [3, 15]?
The value was 45.

What about the pest or weed control at 16 g/ha ([3]; Ambrosia artemisiifolia, post-emergence, 16 g ai/ha, postemergence, 0 is no effect, 100 is complete control, read-out: Plant response rating (0 to 100), Ragweed) of the same molecule?
The pest or weed control at 16 g/ha was 20%.

What about the pest or weed control at 125 g/ha ([3]; Ambrosia artemisiifolia, post-emergence, 125 g ai/ha, postemergence, visual rating, scale 0 to 100 (0 no effect, 100 complete control), read-out: Plant response rating, Ragweed) of the same molecule?
The pest or weed control at 125 g/ha was 80%.

And the pest or weed control at 62 g/ha ([3]; Ambrosia artemisiifolia, post-emergence, Postemergence, 62 g ai/ha, scale 0 to 100 (0 no effect, 100 complete control), 13 to 15 days, read-out: Plant response rating, Ragweed)?
The pest or weed control at 62 g/ha was 55%.

What about the “Barnyardgrass plant response rating (0 to 100 scale, 0 is no effect, 100 is complete control)” value ([4]; 125 g ai/ha) of the same molecule?
The value was 100.

What about the pest or weed control at 31 g/ha ([4]; Echinochloa crus-galli, pre-emergence, 240 h, 31 g ai/ha, 0 to 100 scale where 0 is no effect and 100 is complete control, visual, approximately 10 days, read-out: Plant response rating, Barnyardgrass) of the same molecule?
The pest or weed control at 31 g/ha was 50%.

And the pest or weed control at 250 g/ha [5]?
The pest or weed control at 250 g/ha was 85%.

What about the pest or weed control at 250 g/ha [6] of the same molecule?
Its pest or weed control at 250 g/ha is 40%.

What about the plant injury at 250 g/ha [7] of the same molecule?
Its plant injury at 250 g/ha is 25%.

And the “Velvetleaf plant response rating” value [8, 15]?
The value was 70.

And the pest or weed control at 16 g/ha ([8]; Abutilon theophrasti, post-emergence, 16 g ai/ha, postemergence, 0 is no effect, 100 is complete control, read-out: Plant response rating (0 to 100), Velvetleaf)?
The pest or weed control at 16 g/ha was 30%.

And the pest or weed control at 125 g/ha ([8]; Abutilon theophrasti, post-emergence, 125 g ai/ha, postemergence, visual rating, scale 0 to 100 (0 no effect, 100 complete control), read-out: Plant response rating, Velvetleaf)?
Its pest or weed control at 125 g/ha is 85%.

What about the pest or weed control at 62 g/ha ([8]; Abutilon theophrasti, post-emergence, Postemergence, 62 g ai/ha, scale 0 to 100 (0 no effect, 100 complete control), 13 to 15 days, read-out: Plant response rating, Velvetleaf) of the same molecule?
Its pest or weed control at 62 g/ha is 70%.

What about the “Wheat plant response rating” value [9, 15] of the same molecule?
The value was 0.

And the plant injury at 16 g/ha ([9]; Triticum aestivum, post-emergence, 16 g ai/ha, postemergence, 0 is no effect, 100 is complete control, read-out: Plant response rating (0 to 100), Wheat)?
Its plant injury at 16 g/ha is 0%.

What about the plant injury at 125 g/ha ([9]; Triticum aestivum, post-emergence, 125 g ai/ha, postemergence, visual rating, scale 0 to 100 (0 no effect, 100 complete control), read-out: Plant response rating, Wheat) of the same molecule?
Its plant injury at 125 g/ha is 0%.

What about the plant injury at 62 g/ha ([9]; Triticum aestivum, post-emergence, Postemergence, 62 g ai/ha, scale 0 to 100 (0 no effect, 100 complete control), 13 to 15 days, read-out: Plant response rating, Wheat) of the same molecule?
The plant injury at 62 g/ha was 0%.

What about the pest or weed control at 16 g/ha ([10]; 16 g ai/ha, postemergence, 0 is no effect, 100 is complete control, read-out: Plant response rating (0 to 100), Galium) of the same molecule?
Its pest or weed control at 16 g/ha is 45%.

And the pest or weed control at 31 g/ha ([10]; 31 g ai/ha, postemergence, visual rating, scale 0 to 100 (0 no effect, 100 complete control), 13 to 15 days, read-out: Galium plant response rating)?
The pest or weed control at 31 g/ha was 80%.

And the pest or weed control at 125 g/ha ([10]; 125 g ai/ha, postemergence, visual rating, scale 0 to 100 (0 no effect, 100 complete control), read-out: Plant response rating, Galium)?
The pest or weed control at 125 g/ha was 100%.

What about the pest or weed control at 62 g/ha ([10]; Postemergence, 62 g ai/ha, scale 0 to 100 (0 no effect, 100 complete control), 13 to 15 days, read-out: Plant response rating, Galium) of the same molecule?
The pest or weed control at 62 g/ha was 80%.

What about the “Lambsquarters plant response rating” value [11, 15] of the same molecule?
Its value is 80.

What about the pest or weed control at 16 g/ha ([11]; Chenopodium album, post-emergence, 16 g ai/ha, postemergence, 0 is no effect, 100 is complete control, read-out: Plant response rating (0 to 100), Lambsquarters) of the same molecule?
The pest or weed control at 16 g/ha was 30%.

What about the pest or weed control at 125 g/ha ([11]; Chenopodium album, post-emergence, 125 g ai/ha, postemergence, visual rating, scale 0 to 100 (0 no effect, 100 complete control), read-out: Plant response rating, Lambsquarters) of the same molecule?
The pest or weed control at 125 g/ha was 95%.

What about the pest or weed control at 62 g/ha ([11]; Chenopodium album, post-emergence, Postemergence, 62 g ai/ha, scale 0 to 100 (0 no effect, 100 complete control), 13 to 15 days, read-out: Plant response rating, Lambsquarters) of the same molecule?
Its pest or weed control at 62 g/ha is 80%.

And the pest or weed control at 16 g/ha ([12]; 16 g ai/ha, postemergence, 0 is no effect, 100 is complete control, read-out: Plant response rating (0 to 100), Chickweed)?
Its pest or weed control at 16 g/ha is 60%.

And the pest or weed control at 31 g/ha ([12]; 31 g ai/ha, postemergence, visual rating, scale 0 to 100 (0 no effect, 100 complete control), 13 to 15 days, read-out: Chickweed plant response rating)?
The pest or weed control at 31 g/ha was 70%.

What about the pest or weed control at 125 g/ha ([12]; 125 g ai/ha, postemergence, visual rating, scale 0 to 100 (0 no effect, 100 complete control), read-out: Plant response rating, Chickweed) of the same molecule?
Its pest or weed control at 125 g/ha is 90%.

And the pest or weed control at 62 g/ha ([12]; Postemergence, 62 g ai/ha, scale 0 to 100 (0 no effect, 100 complete control), 13 to 15 days, read-out: Plant response rating, Chickweed)?
Its pest or weed control at 62 g/ha is 90%.

And the “Nutsedge, Yellow plant response rating” value [13, 15]?
Its value is 5.

What about the pest or weed control at 16 g/ha ([13]; Cyperus, post-emergence, 16 g ai/ha, postemergence, 0 is no effect, 100 is complete control, read-out: Plant response rating (0 to 100), Nutsedge, Yellow) of the same molecule?
The pest or weed control at 16 g/ha was 5%.

What about the pest or weed control at 125 g/ha ([13]; Cyperus, post-emergence, 125 g ai/ha, postemergence, visual rating, scale 0 to 100 (0 no effect, 100 complete control), read-out: Plant response rating, Nutsedge, Yellow) of the same molecule?
Its pest or weed control at 125 g/ha is 5%.

What about the pest or weed control at 62 g/ha ([13]; Cyperus, post-emergence, Postemergence, 62 g ai/ha, scale 0 to 100 (0 no effect, 100 complete control), 13 to 15 days, read-out: Plant response rating, Nutsedge, Yellow) of the same molecule?
The pest or weed control at 62 g/ha was 5%.

What about the pest or weed control at 250 g/ha [14] of the same molecule?
The pest or weed control at 250 g/ha was 75%.
